Type in all cases: in vivo
For experiment [1], the system named is Larvae of Mosquito (Culex pipiens). Nature of the experiment: Insecticidal activity on larvae of mosquito (Experimental Example 2). Particulars: 24 h, read-out: LC50 (50% lethal concentration). On the procedure: An emulsifiable concentrate was prepared by blending each of the compounds (1) to (300) of the present invention, xylol and Sorpol SM-200 (trade name; manufactured by Toho Chemical Co., Ltd.) in a proportion of 25%, 50% and 25% (by weight), respectively. 20 to 25 day-old rice plants after seeding were grown in pots and sprayed with each 300-fold dilute solution of the emulsifiable concentrates thus prepared and a 300-fold dilute solution of carbaryl 30% wettable powder diluted with water as a control commercial agent in an amount of 10 ml/pot in each case and then the pots were covered by a cylindrical metal net. 15 small brown planthoppers (Delphacodes striatella Fallen) per group were released in each of the pots treated with carbaryl wettable powder, and compound (1) to (21) and (102) to (110), while 15 green rice leafhopper (Nephotettix bipuntatus cincticeps Uhler) per group were released in each of the pots treated with the carbaryl wettable powder and compounds (22) to (101) and (111) to (300).
Of the emulsifiable concentrates prepared in Experimental Example 1, each of those prepared from the compounds of Table 1 below was diluted with water to each of test concentrations and a 200 ml portion thereof was added to a 300 ml volume beaker. 30 larvae of mosquito per group were released in each of the beaker and allowed to stand for 1 day. Survival was observed and a LC50 (50% lethal concentration) was determined by calculating a percent killing in each case. As a control, lindane emulsifiable concentrate was used.

In experiment [2] the test system is adult mosquitoes (Culex pipiens). Nature of the experiment: Knock-down of adult mosquitoes by 0.2% oil preparation (Experimental Example 4). Particulars: 0.2% oil preparation, 0.7 ml, 1.5 Kg/cm^2, (70 Cm)^3 glass box, read-out: mosquitoes knocked down. On the procedure:
(§1) 0.2% oil preparation was prepared from each of the compounds (1), (2), (8), (14), (22), (25), (26), (27), (51), (62), (73), (82), (86), (88), to (90), (92), (94), (96), (111), (119), (121), (165), (175), (180), (184), (185), (195), (200), (201), and (208) and allethrin as a control using deodorized kerosene.

Experiment [3] deals with oriental house flies. Nature of the experiment: Potentiation of insecticidal activity by addition of piperonyl butoxide, topical application (Experimental Example 6). Particulars: piperonyl butoxide 5 times active ingredient; acetone solution on thoracic dorsal plate. On the procedure: To each of the compounds (22), (51), (62), (63), (82), (86), (125), (150), (160), (176), (177), (178), (184), (185), (191), (195), (200), (201), (204), (208), (210), (212) and (226) was added piperonyl butoxide in an amount of 5 times that of the active ingredient, respectively to prepare an acetone solution having a given concentration. Each of the thus prepared acetone solutions was applied onto a thoracic dosal plate of oriental house flies using a microshringe to observe a synergestic effect on insecticidal activity by piperonyl butoxide.

The test system of experiment [4] is oriental house flies. Nature of the experiment: Activity on knock-down against oriental house flies (Experimental Example 5). As to conditions: 0.2% oil preparation, 0.7 ml, 1.5 Kg/cm^2, (70 cm)^3 glass box. On the procedure:
as §1
20 oriental house flies per group were released in a (70 cm)^3 volume glass box and sprayed with each of the oil preparations prepared in Experimental Example 4 from the compounds of Table 3 below and allethrin in an amount of 0.7 ml under a pressure of 1.5 Kg/cm^2.

In brackets after ≈: the same amount, converted by molar mass.

The values below come from US4031235A, “Insecticidal substituted acetate compounds” (Sumitomo Chemical Company, Limited, priority 1972, dated 1977).

Consider `CCC(C(=O)OCc1coc(Cc2ccccc2)c1)c1ccc(C)cc1` (stereo not drawn) [compound 102, 5'-Benzyl-3'-furylmethyl-α-ethyl-4-methylphenylacetate], for which, in experiment [1], the LC50 is 9.5 ng/mL (≈ 0.0273 µM). Regarding `CCC(C(=O)OCc1coc(Cc2ccccc2)c1)c1ccc([S+](C)[O-])cc1` (stereo not drawn) [compound 26, 5'-Benzyl-3'-furylmethyl-α-ethyl-4-methylsulfoxyphenylacetate], the pest or weed control at 0.2 % in experiment [2] is > 80%. As for `CCC(C(=O)OC1C=C(Cc2ccccc2)C(=O)C1)c1ccc(F)cc1` (stereo not drawn) [compound 191], the “Potentiation magnification of insecticidal activity by the addition of piperonyl butoxide” value (shortened to “Potentiation magnification”) with oriental house flies [3] was found to be 4.3. Regarding `Cc1ccc(C(C)C(=O)OCc2coc(Cc3ccccc3)c2)cc1` (stereo not drawn) [compound 181], the LC50 in experiment [1] is 82 ng/mL (≈ 0.245 µM). For the compound `CCC(C(=O)OCc1cccc(Oc2ccccc2)c1)c1ccc(OC(C)=O)cc1` (stereo not drawn) [compound 25, 3'-Phenoxybenzyl-α-ethyl-4-acetoxyphenylacetate], the pest or weed control at 0.2 % in experiment [2] is > 80%.

For the compound `CCC(C(=O)OCc1coc(Cc2ccccc2)c1)c1cccc(C)c1` (stereo not drawn) [compound 104, 5'-Benzyl-3'-furylmethyl-α-ethyl-3-methylphenylacetate], the LC50 in experiment [1] was 12 ng/mL (≈ 0.0344 µM). Still for that read-out and setting: as for `Cc1ccc(C(C)C(=O)OCc2cccc(Oc3ccccc3)c2)cc1` (stereo not drawn) [compound 183], the figure is 88.5 ng/mL (≈ 0.255 µM). Turning to `COc1ccc(C(C(=O)OCc2ccc(Cc3ccccc3)s2)C(C)C)cc1` (stereo not drawn) [compound 86, 5'-Benzyl-2'-thenylmethyl-α-isopropyl-4-methoxyphenylacetate], in the experiment with oriental house flies [3], the “Potentiation magnification” value amounted to 4.5. For the same compound, in experiment [2], the pest or weed control at 0.2 % was > 80%.

For the compound `Cl[C@H]1[C@H](Cl)[C@@H](Cl)[C@@H](Cl)[C@H](Cl)[C@H]1Cl` [Lindane, lindane, reference compound], the LC50 in experiment [1] was found to be 220 ng/mL (≈ 0.756 µM). In the case of `CCC(C(=O)OCN1C(=O)C2=C(CCCC2)C1=O)c1c(C)cc(C)cc1C` (stereo not drawn) [compound 27, 3',4',5',6'-Tetrahydrophthalimidomethyl-2-ethyl-2,4,6-trimethylphenylacetate], the pest or weed control at 0.2 % in experiment [2] is > 80%.

Turning to `CCC(C(=O)OC(C#N)c1cccc(Oc2ccccc2)c1)c1ccccc1` (stereo not drawn) [compound 14, 3'-Phenoxy-α'-cyanobenzyl-α-ethylphenylacetate], in experiment [1], the LC50 stood at 2.6 ng/mL (≈ 0.007 µM). Also, the pest or weed control at 0.2 % in experiment [2] is > 80%. In the case of `C=C(C)C(C(=O)OCc1coc(Cc2ccccc2)c1)c1ccc(C)cc1` (stereo not drawn) [compound 128, 5'-Benzyl-3'-furylmethyl-α-isopropenyl-4-methylphenylacetate], the LC50 in experiment [1] was found to be 4.7 ng/mL (≈ 0.013 µM). Regarding `C#CCc1ccc(C(C#C)OC(=O)C(CC)c2ccc(OC)cc2)o1` (stereo not drawn) [compound 94, 5'-Propargyl-α'-ethynylfurfuryl-α-ethyl-4-methoxyphenylacetate], in experiment [2], the pest or weed control at 0.2 % is > 80%.

In the case of `CC(C)C(C(=O)OCc1cccc(Oc2ccccc2)c1)c1ccc(F)cc1` (stereo not drawn) [compound 210], the “Potentiation magnification” value in the experiment with oriental house flies [3] was determined as 4.8. Also, the LC50 in experiment [1] was 3.5 ng/mL (≈ 0.00925 µM). With `C#CCc1ccc(COC(=O)C(CC)c2ccccc2)cc1` (stereo not drawn) [compound 10, 4'-Propargylbenzyl-α-ethylphenylacetate], the LC50 in experiment [1] was determined as 3 ng/mL (≈ 0.0103 µM). In the case of `COc1ccc(C(C(=O)OCc2cc3c(o2)CCCC3)C(C)C)cc1` (stereo not drawn) [compound 88, 4',5'-Tetramethylenefurfuryl-α-isopropyl-4-methoxyphenylacetate], the “KT50 (50% knock-down time)” value in the experiment on oriental house flies [4] amounted to 147 s. Besides, the pest or weed control at 0.2 % in experiment [2] was > 80%. For the compound `CC(C)C(C(=O)OCc1coc(Cc2ccccc2)c1)c1cccc(Cl)c1` (stereo not drawn) [compound 204], the “Potentiation magnification” value in the experiment with oriental house flies [3] came to 4.7. Further, the LC50 in experiment [1] came out at 7.5 ng/mL (≈ 0.0196 µM). Consider `CC(C)C(C(=O)OCc1coc(Cc2ccccc2)c1)c1ccc(Br)cc1` (stereo not drawn) [compound 212], for which the “Potentiation magnification” value in the experiment with oriental house flies [3] is given as 5.0. Also, the LC50 in experiment [1] was 3.7 ng/mL (≈ 0.00866 µM).

With `CCC(C(=O)OCc1coc(Cc2ccccc2)c1)c1ccccc1C` (stereo not drawn) [compound 110, 5'-Benzyl-3'-furylmethyl-α-ethyl-2-methylphenylacetate], the LC50 in experiment [1] amounted to 12.5 ng/mL (≈ 0.0359 µM). The same measure, in the same setting: as for `Cc1cccc(C(C(=O)OCc2coc(Cc3ccccc3)c2)C(C)C)c1` (stereo not drawn) [compound 105, 5'-Benzyl-3'-furylmethyl-α-isopropyl-3-methylphenylacetate], the figure is 10.5 ng/mL (≈ 0.029 µM). Regarding `C=CCC1=C(C)C(OC(=O)C(CC)c2ccco2)CC1=O` (stereo not drawn) [compound 16, 2'-Allyl-3'-methyl-2'-cyclopentene-1'-one-4"-yl-α-ethyl-2-furylacetate], in experiment [1], the LC50 came out at 1.4 ng/mL (≈ 0.00486 µM).

As for `C=C(C)C(C(=O)OCc1csc(Cc2ccccc2)c1)c1ccc(C)cc1` (stereo not drawn) [compound 112], the LC50 in experiment [1] amounted to 4.6 ng/mL (≈ 0.0122 µM). `C=C(C)C(C(=O)OCc1cccc(Cc2ccccc2)c1)c1ccc(OC)cc1` (stereo not drawn) [compound 92, 3'-Benzylbenzyl-α-isopropenyl-4-methoxyphenylacetate]: in experiment [2], the pest or weed control at 0.2 % is > 80%. On to `Cc1ccc(C(C(=O)OC(C#N)c2cccc(Oc3ccccc3)c2)C(C)C)cc1` (stereo not drawn) [compound 227], for which, in experiment [1], the LC50 worked out at 1.9 ng/mL (≈ 0.00476 µM). On to `C#CCc1ccc(C(C#C)OC(=O)C(c2ccc(C)cc2)C(C)C)o1` (stereo not drawn) [compound 160], for which the “Potentiation magnification” value in the experiment with oriental house flies [3] was 7.2. For the compound `CCC(C(=O)OCc1cccc(Oc2ccccc2)c1)c1ccc(Cl)cc1` (stereo not drawn) [compound 177], the “Potentiation magnification” value in the experiment on oriental house flies [3] was found to be 5.8. Moreover, the LC50 in experiment [1] stood at 7.4 ng/mL (≈ 0.0194 µM). As for `C=C(C)C(C(=O)OCc1cccc(Oc2ccccc2)c1)c1cccc(Cl)c1` (stereo not drawn) [compound 120, 3'-Phenoxybenzyl-α-isopropenyl-3-chlorophenylacetate], in experiment [1], the LC50 came to 4 ng/mL (≈ 0.0102 µM). Consider `COc1ccc(C(C(=O)OCc2cccc(Cc3ccccc3)c2)C(C)C)cc1` (stereo not drawn) [compound 89, 3'-Benzylbenzyl-α-isopropyl-4-methoxyphenylacetate], for which the “KT50 (50% knock-down time)” value with oriental house flies [4] is 155 s. Turning to `CC(C)C(C(=O)OC(C#N)c1cccc(Oc2ccccc2)c1)c1ccc(Cl)cc1` (stereo not drawn) [compound 231], in experiment [1], the LC50 was determined as 1.4 ng/mL (≈ 0.00333 µM). On to `Cc1ccc(C(C(=O)OCc2ccc(Cc3ccccc3)cc2)C(C)C)cc1` (stereo not drawn) [compound 226], for which the “Potentiation magnification” value with oriental house flies [3] came to 4.5. Also, in experiment [1], the LC50 came to 13.5 ng/mL (≈ 0.0362 µM).

For `CCc1ccc(C(C(=O)OCc2coc(Cc3ccccc3)c2)C(C)C)cc1` (stereo not drawn) [compound 214], the LC50 in experiment [1] was determined as 12.7 ng/mL (≈ 0.0337 µM). On the same count and under the same terms, the figure for `C=C(C)C(C(=O)OCc1coc(Oc2ccccc2)c1)c1ccc(C)cc1` (stereo not drawn) [compound 115, 5'-Phenoxy-3'-furylmethyl-α-isopropenyl-4-methyl phenylacetate] is 5 ng/mL (≈ 0.0138 µM).

In the case of `C=C(C)C(C(=O)OCN1C(=O)C2=C(CCCC2)C1=O)c1ccc(OC)cc1` (stereo not drawn) [compound 90, 3',4',5',6'-Tetrahydrophthalimidomethyl-α-isopropenyl-4-methoxyphenylacetate], in experiment [2], the pest or weed control at 0.2 % was > 80%. For the compound `Cc1ccc(C(C(=O)OCc2coc(Cc3ccccc3)c2)C(C)C)cc1` (stereo not drawn) [compound 103, 5'-Benzyl-3'-furylmethyl-α-isopropyl-4-methylphenylacetate], the LC50 in experiment [1] was found to be 9.2 ng/mL (≈ 0.0254 µM). For the compound `CSc1ccc(C(C(=O)OCc2cccc(Oc3ccccc3)c2)C(C)C)cc1` (stereo not drawn) [compound 298], the LC50 in experiment [1] worked out at 9.7 ng/mL (≈ 0.0239 µM).

For `COc1ccc(C(C(=O)OCN2C(=O)C3=C(CCCC3)C2=O)C(C)C)cc1` (stereo not drawn) [compound 73, 3',4',5',6'-Tetrahydrophthalimidomethyl-α-isopropyl-p-methoxyphenylacetate], the pest or weed control at 0.2 % in experiment [2] is > 80%.

Take `C=C(C)C(C(=O)OCc1coc(Cc2ccco2)c1)c1ccc(C)cc1` (stereo not drawn) [compound 113, 5'-Furfuryl-3'-furylmethyl-α-isopropenyl-4-methylphenylacetate]: in experiment [1], the LC50 stood at 5.3 ng/mL (≈ 0.0151 µM).

On to `CCc1ccc(C(C(=O)OCc2cccc(Oc3ccccc3)c2)C(C)C)cc1` (stereo not drawn) [compound 215], for which the LC50 in experiment [1] was determined as 13.2 ng/mL (≈ 0.034 µM). For the compound `CCC(C(=O)OCc1cccc(Oc2ccccc2)c1)c1ccc(Br)cc1` (stereo not drawn) [compound 178], in the experiment on oriental house flies [3], the “Potentiation magnification” value was determined as 5.4. In the case of `C=C(C)C(C(=O)OCc1cccc(Oc2ccccc2)c1)c1ccc(CC)cc1` (stereo not drawn) [compound 126, 3'-Phenoxybenzyl-α-isopropenyl-4-ethylphenylacetate], in experiment [1], the LC50 came out at 5.6 ng/mL (≈ 0.0145 µM).
